From article PMC3408963 (Bioorganic & medicinal chemistry, 2012)

Tests used:
[1] = target: COX-1 (Homo sapiens, UniProt P23219); type: biochemical; conditions: for COX-1 inhibition, result in words: initial screen at 25 μM / relevant concentration range; for IC50: read-out: IC50 COX-1, radioactivity assay, pre-incubation 17 min at 25 °C and 3 min at 37 °C, 50 μM [14C]-AA for 30 sec, average of at least two independent experiments
[2] = target: T1, COX-2 (Homo sapiens, UniProt P35354); type: biochemical; conditions: for COX-2 inhibition, result in words: initial screen at 25 μM / relevant concentration range; for IC50: read-out: IC50 COX-2, radioactivity assay, pre-incubation 17 min at 25 °C and 3 min at 37 °C, 50 μM [14C]-AA for 30 sec, average of at least two independent experiments
T1 sequence (P35354 18-604): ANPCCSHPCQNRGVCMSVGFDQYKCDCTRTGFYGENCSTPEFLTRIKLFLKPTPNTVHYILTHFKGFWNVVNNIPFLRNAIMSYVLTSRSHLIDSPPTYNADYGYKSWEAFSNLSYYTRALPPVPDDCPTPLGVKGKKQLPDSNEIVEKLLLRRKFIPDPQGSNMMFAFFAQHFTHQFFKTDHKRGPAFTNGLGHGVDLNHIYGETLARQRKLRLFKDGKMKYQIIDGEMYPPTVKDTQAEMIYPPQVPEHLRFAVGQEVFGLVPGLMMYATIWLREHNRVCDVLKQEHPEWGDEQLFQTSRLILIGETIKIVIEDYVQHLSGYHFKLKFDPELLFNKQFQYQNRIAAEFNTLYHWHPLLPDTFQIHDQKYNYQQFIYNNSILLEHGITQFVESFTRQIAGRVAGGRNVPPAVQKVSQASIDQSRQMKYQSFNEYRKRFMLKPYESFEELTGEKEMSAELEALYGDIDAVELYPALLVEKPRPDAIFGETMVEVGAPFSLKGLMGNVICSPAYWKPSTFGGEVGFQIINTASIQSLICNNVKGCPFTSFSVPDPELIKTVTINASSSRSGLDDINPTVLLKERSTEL

Chain of COX-1 (P23219 24-599): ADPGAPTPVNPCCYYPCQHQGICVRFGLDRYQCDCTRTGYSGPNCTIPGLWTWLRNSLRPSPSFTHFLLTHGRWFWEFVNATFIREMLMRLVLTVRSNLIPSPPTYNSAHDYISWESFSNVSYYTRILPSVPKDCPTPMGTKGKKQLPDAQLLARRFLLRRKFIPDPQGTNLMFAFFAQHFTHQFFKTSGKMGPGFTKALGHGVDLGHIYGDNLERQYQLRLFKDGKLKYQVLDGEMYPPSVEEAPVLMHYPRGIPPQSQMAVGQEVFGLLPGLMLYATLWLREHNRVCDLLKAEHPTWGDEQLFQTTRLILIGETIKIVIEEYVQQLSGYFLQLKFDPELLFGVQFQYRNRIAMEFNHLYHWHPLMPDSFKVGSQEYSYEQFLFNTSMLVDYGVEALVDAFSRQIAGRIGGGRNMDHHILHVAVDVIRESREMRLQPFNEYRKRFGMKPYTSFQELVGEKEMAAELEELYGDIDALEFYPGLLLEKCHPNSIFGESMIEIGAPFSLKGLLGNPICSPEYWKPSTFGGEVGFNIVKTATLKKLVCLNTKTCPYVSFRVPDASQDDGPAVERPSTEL

| Compound | COX-1 inhibition, result in words [1] | IC50 [1] | COX-2 inhibition, result in words [2] | IC50 [2] |
| --- | --- | --- | --- | --- |
| 1-(1-Carboxy-1,2-dicarba-closo-dodecaboran(12)yl)-5-methoxy-2-methyl-1H-indole-3-acetic acid [Compound 4o] | not COX-1 | > 25 µM | exclusively inhibited COX-2 | 3.68 µM |
| 1-(1-Carboxy-1,2-dicarba-closo-dodecaboran(12)yl)-5-methoxy-2-methyl-1H-indole-3-acetic acid tert-butyl ester [Compound 3o] | not COX-1 | > 25 µM | exclusively inhibited COX-2 | 1.41 µM |
| COC(=O)Cc1c(C)n(C(=O)c2ccc(Cl)cc2)c2ccc(OC)cc12 [Compound 1i, Indomethacin methyl ester, reference compound] |  | > 25 µM |  |  |
| 1-(1-Carboxy-1,2-dicarba-closo-dodecaboran(12)yl)-5-methoxy-2-methyl-1H-indole-3-acetic acid benzyl ester [Compound 2o] | also inhibited COX-1 | 15.1 µM |  | 11.6 µM |
| 1-(1-Carboxy-1,2-dicarba-closo-dodecaboran(12)yl)-5-methoxy-2-methyl-1H-indole-3-acetic acid methyl ester [Compound 1o] | also inhibited COX-1 | 12.8 µM |  | 0.084 µM |
